Source: PubChem BioAssay (NCI)
“And” between values parts separate entries of the source, which are not always exact repeats. Equal values may be shown once.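 Protocol summary: plate cells (96-well), add compound at 5 concentrations, incubate 48 h, interpolate endpoints linearly. GI50 = concentration required for 50% inhibition of growth. At the TGI there is no net growth.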

Tests used:
Assay in all cases: NCI-60 cell line screen, 48 h
SF-268 CNS = test system: SF-268 CNS
SF-295 CNS = test system: SF-295 CNS
COLO 205 colon = test system: COLO 205 colon
NCI-H226 lung = test system: NCI-H226 lung
SK-MEL-5 melanoma = test system: SK-MEL-5 melanoma
NCI-H522 lung = test system: NCI-H522 lung
SNB-19 CNS = test system: SNB-19 CNS
K-562 leukemia = test system: K-562 leukemia
SF-539 CNS = test system: SF-539 CNS
OVCAR-4 ovarian = test system: OVCAR-4 ovarian
UACC-62 melanoma = test system: UACC-62 melanoma
SN12C renal = test system: SN12C renal
PC-3 prostate = test system: PC-3 prostate
MCF7 breast = test system: MCF7 breast

| SMILES | TGI (SF-268 CNS) | TGI (SF-295 CNS) | TGI (COLO 205 colon) | TGI (NCI-H226 lung) | TGI (SK-MEL-5 melanoma) | TGI (NCI-H522 lung) | TGI (SNB-19 CNS) | TGI (K-562 leukemia) | TGI (SF-539 CNS) | TGI (OVCAR-4 ovarian) | TGI (UACC-62 melanoma) | TGI (SN12C renal) | TGI (PC-3 prostate) | TGI (MCF7 breast) | GI50 (NCI-H522 lung) | GI50 (SNB-19 CNS) |
| --- | --- | --- | --- | --- | --- | --- | --- | --- | --- | --- | --- | --- | --- | --- | --- | --- |
| N#CCC(=O)Nc1ccccc1O | > 100 µM | > 100 µM | > 100 µM | > 100 µM | > 100 µM | > 100 µM | > 100 µM | > 100 µM | > 100 µM | > 100 µM | > 100 µM | > 100 µM | – | – | – | – |
| CN1C(=O)N(c2nc3ccccc3[nH]2)C(C)(C)C1=O | > 100 µM | > 100 µM | > 100 µM | > 100 µM | > 100 µM | > 100 µM | > 100 µM | > 100 µM | > 100 µM | > 100 µM | > 100 µM | > 100 µM | – | – | – | – |
| COC(=O)C(C#N)C1NC(=O)c2ccccc21 (stereo not given) | > 100 µM | > 100 µM | > 100 µM | > 100 µM | > 100 µM | > 100 µM | > 100 µM | > 100 µM | > 100 µM | > 100 µM | > 100 µM | > 100 µM | – | – | – | – |
| CC(C)=CCOc1ccc(-c2coc3cc4c(c(O)c3c2=O)C=CC(C)(C)O4)cc1 | > 100 µM | > 100 µM | > 100 µM | > 100 µM | 0.932 µM | 38.9 µM | > 100 µM | > 100 µM | – | 80 µM | – | > 100 µM | – | – | – | – |
| O=C1c2c(O)cccc2Cc2cc(CO)cc(O)c21 | 14.3 µM | 5.85 µM | 4.9 µM | 17.3 µM | 3.75 µM | – | 36.6 µM | > 100 µM | – | 14.4 µM | – | 16.9 µM | 4.28 µM | – | – | – |
| CC1=NNC(=O)C1C1C=C(c2c[nH]c3ccccc23)OC1=O (stereo not given) | > 100 µM | > 100 µM | > 100 µM | > 100 µM | > 100 µM | > 100 µM | > 100 µM | > 100 µM | > 100 µM | – | > 100 µM | > 100 µM | > 100 µM | – | – | – |
| CCOC(=O)/C(=C\c1c(C)[nH]c2ccccc12)P(=O)(OCC)OCC | > 100 µM | > 100 µM | > 100 µM | > 100 µM | > 100 µM | > 100 µM | > 100 µM | > 100 µM | > 100 µM | > 100 µM | > 100 µM | > 100 µM | – | > 100 µM | – | – |
| Cc1cc(C)c(C(=O)C(C)C(c2ccccc2)c2ccc(Cl)cc2)c(C)c1 (stereo not given) | > 100 µM | > 100 µM | > 100 µM | > 100 µM | > 100 µM | > 100 µM and 65.5 µM | > 100 µM | > 100 µM | > 100 µM | > 100 µM | > 100 µM | > 100 µM | – | – | > 100 µM and 15.9 µM | > 100 µM |
| CC(O)C1OC(n2ccc(=O)[nH]c2=O)CC1n1cncn1 (stereo not given) | > 100 µM | > 100 µM | > 100 µM | > 100 µM | > 100 µM | > 100 µM | > 100 µM | > 100 µM | – | > 100 µM | > 100 µM | > 100 µM | – | – | – | – |
| O=C(NCc1ccccc1)C1C(=O)C(=O)N(Cc2ccccc2)C1=O (stereo not given) | > 100 µM | > 100 µM | > 100 µM | > 100 µM | > 100 µM | > 100 µM | > 100 µM | > 100 µM | > 100 µM | > 100 µM | > 100 µM | > 100 µM | – | – | – | – |
| C/C(=N/N)c1sc(-c2nc(C)c(/C(C)=N\N)s2)nc1C | > 100 µM | > 100 µM | > 68.9 µM | > 100 µM | > 100 µM | > 100 µM | > 100 µM | > 100 µM | > 100 µM | > 100 µM | > 100 µM | > 100 µM | – | – | – | – |
| CC(C)(C)NC(=S)N/N=C/c1ccccn1 | > 100 µM | > 100 µM | > 100 µM | > 25.9 µM | > 46.4 µM | > 86.9 µM | > 100 µM | – | 27.6 µM | > 100 µM | 37.3 µM | > 96.1 µM | > 100 µM | – | – | – |
| CC(C)(C)OC(=O)C1/C(=C/CBr)CN1C(=O)OC(C)(C)C (stereo not given) | 21.2 µM | 30.5 µM | 6.1 µM | – | 27.4 µM | – | 32.5 µM | 7.54 µM | 35.9 µM | 7.79 µM | 33.4 µM | 27 µM | 28.1 µM | 28.9 µM | – | – |
| C/C(=C\CC/C=C(\C)CC/C=C(\C)CCC1SC1(C)C)CC/C=C(\C)CCC1OC1(C)C (stereo not given) | > 100 µM | > 100 µM | > 100 µM | > 100 µM | > 100 µM | > 100 µM | > 100 µM | > 100 µM | > 100 µM | > 100 µM | – | > 100 µM | – | – | – | – |
| COc1ccc(/C=C/c2nc(=S)[nH][nH]2)cc1OC | > 100 µM | > 100 µM | – | > 100 µM | > 100 µM | – | > 100 µM | > 100 µM | > 100 µM | > 100 µM | > 100 µM | > 100 µM | – | – | – | – |
| CC(=O)OCC1OC(n2c(O)c(N=NC(N)=S)c3ccc([N+](=O)[O-])cc32)C(OC(C)=O)C1OC(C)=O (stereo not given) | > 100 µM | > 100 µM | > 100 µM | 84.7 µM | > 100 µM | 31.4 µM | > 100 µM | > 100 µM | 70.2 µM | 43.3 µM | 27.6 µM | > 100 µM | – | – | – | – |
| COC(=O)/C(=N\N)C(C(=O)C(=O)Nc1nc(=S)[nH][nH]1)c1nc2ccc([N+](=O)[O-])cc2[nH]c1=O (stereo not given) | > 100 µM | > 100 µM | > 100 µM | > 100 µM | > 100 µM | > 100 µM | > 100 µM | > 100 µM | > 100 µM | > 100 µM | > 100 µM | > 100 µM | – | – | – | – |
| Cc1cnc2[nH]c(-c3ccc(Cl)cc3)cc(=O)c2c1 | > 100 µM | 23 µM | > 100 µM | > 100 µM | > 100 µM | > 100 µM | > 100 µM | 19.8 µM | 6.81 µM | > 100 µM | > 100 µM | > 100 µM | – | > 72.5 µM | – | – |
| O=C1C2C3C=C4c5ccccc5N(c5ccccc5)C4([C@@H]2C(=O)N1c1ccc(F)cc1)[C@H]1C(=O)N(c2ccc(F)cc2)C(=O)[C@@H]31 (stereo not given in full) | > 100 µM | > 100 µM | > 100 µM | > 100 µM | – | > 100 µM | > 100 µM | > 100 µM | > 100 µM | – | – | > 100 µM | – | – | – | – |
| COc1cc2c(cc1OC)[C@H]1C(COC(=O)Nc3ccccc3)CN1CC2 (stereo not given in full) | > 100 µM | > 100 µM | > 100 µM | – | > 100 µM | > 100 µM | > 100 µM | > 100 µM | > 100 µM | > 100 µM | > 100 µM | > 100 µM | – | – | – | – |
| O=C(O)CCC(NC(=O)c1ccc(CNc2nc3cc(C(F)(F)F)ccc3nc2C(=O)O)cc1)C(=O)O (stereo not given) | > 100 µM | > 100 µM | > 100 µM | > 100 µM | – | > 100 µM | > 100 µM | > 100 µM | > 100 µM | > 100 µM | > 100 µM | – | > 100 µM | – | – | – |
| COC1(C)CNCC(C)(C)NC(=O)C(C)(OC)CNCC(C)(C)NC1=O (stereo not given) | > 100 µM | > 100 µM | > 100 µM | > 100 µM | > 100 µM | > 100 µM | > 100 µM | > 100 µM | > 100 µM | > 100 µM | > 100 µM | > 100 µM | – | – | – | – |
| CC1OC(CC2C=CCc3c(O)c4c(c(O)c32)C(=O)c2ccccc2C4=O)CC(NC(=O)C(F)(F)F)C1O (stereo not given) | 22.2 µM | 18 µM | 53.4 µM | 31.6 µM | 27.3 µM | 44.9 µM | 18.7 µM | 20.6 µM | 15 µM | 11.7 µM | 17.4 µM | 18.2 µM | – | – | – | – |
| CN1CCN(Cc2ccccc2)CC1CC#N (stereo not given) | > 100 µM | > 100 µM | > 100 µM | > 100 µM | > 100 µM | – | > 100 µM | > 100 µM | > 100 µM | > 100 µM | > 100 µM | > 100 µM | – | > 100 µM | – | – |
| COc1cc2cnc3c4cc(OC)c(OC(C)C)cc4ccc3c2cc1OC | > 100 µM | > 100 µM | > 100 µM | > 100 µM | > 100 µM | > 100 µM | > 100 µM | > 100 µM | > 100 µM | > 100 µM | > 100 µM | > 100 µM | – | – | – | – |
| C/C=C1/C(=Cc2[nH]c(C=c3[nH]/c(=C/C4=NC(=O)C(CC)=C4C)c(C)c3CCC(=O)O)c(CCC(=O)O)c2C)NC(=O)C1C (stereo not given) | > 50 µM | 18.5 µM | > 50 µM | 10.8 µM | – | 39.7 µM | > 50 µM | > 50 µM | 23 µM | > 50 µM | 20.3 µM | > 50 µM | – | – | – | – |
| CC(=O)OCC1=CC2CCC3C(C)(CCC[C@]3(C)COC(C)=O)C23CC[C@H]1C3 (stereo not given in full) | > 100 µM | > 100 µM | 49.3 µM | > 100 µM | 58.8 µM | 45.4 µM | > 100 µM | 73.3 µM | > 100 µM | > 100 µM | > 100 µM | > 100 µM | – | – | – | – |
| CCC(=O)CCC1=Nc2nnc(CCCCc3nnc4n3C(=O)C(CCC(=O)CC)=N4)n2C1=O | > 100 µM | > 100 µM | > 100 µM | > 100 µM | – | > 100 µM | > 100 µM | > 100 µM | > 100 µM | > 100 µM | > 100 µM | > 100 µM | – | – | – | – |
